Assay results as given in the supplement of paper PMC8617591.

Assays:
[1] = system: Mycobacterium tuberculosis Erdman (autoluminescent); assay: AUC25, normalised area under dose response up to IC25 (fraction (0-1)); higher = more potent at low dose
Experimental: (§1)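 DiaMOND dose responses (10 doses, 1.5- or 2-fold spacing, equipotent around IC90) of autoluminescent M. tuberculosis Erdman in 8 in vitro models. Read-out is OD600, or luminescence for the intracellular (J774) and dormancy models, background-subtracted and normalised to untreated wells. A 3-parameter Hill fit gives Einf and AUC25 (area to IC25 normalised by IC25); GRinf comes from a Hill fit of the Hafner normalised growth rate. Biological replicates passing QC are averaged. Single drugs only.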

[2] = system: Mycobacterium tuberculosis Erdman (autoluminescent); assay: Einf, fitted maximum growth inhibition (fraction); higher = stronger maximal inhibition
Experimental: as §1

[3] = system: Mycobacterium tuberculosis Erdman (autoluminescent); assay: GRinf, maximum normalised growth rate inhibition (unitless (-1 to 1)); higher = less effect (negative = killing)
Experimental: as §1

[4] = system: Mycobacterium tuberculosis Erdman (autoluminescent); assay: FIC90 (Loewe) at 90% inhibition (log2); higher = more antagonistic
Experimental: (§2)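 DiaMOND equipotent two-drug combination dose responses against autoluminescent M. tuberculosis Erdman in 8 in vitro models. Read-out is OD600, or luminescence for the intracellular and dormancy models, normalised to untreated wells. Hill-fit Einf, AUC25 and GRinf are potency metrics; FIC50 and FIC90 are Loewe-additivity fractional inhibitory concentrations, given as log2 (negative = synergy). Replicates are averaged.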

[5] = system: Mycobacterium tuberculosis Erdman (autoluminescent); assay: GRinf, maximum normalised growth rate inhibition (unitless (-1 to 1)); higher = less effect (negative = killing); remark: listed apart in the source
Experimental: as §2

[6] = system: Mycobacterium tuberculosis Erdman (autoluminescent); assay: FIC50 (Loewe) at 50% inhibition (log2); higher = more antagonistic
Experimental: as §2

[7] = system: Mycobacterium tuberculosis Erdman (autoluminescent); assay: Einf, fitted maximum growth inhibition of combination (fraction); higher = stronger maximal inhibition
Experimental: as §2

[8] = system: Mycobacterium tuberculosis Erdman (autoluminescent); assay: AUC25, normalised area under dose response up to IC25 (fraction (0-1)); higher = more potent at low dose; remark: listed apart in the source
Experimental: as §2

CC(=O)NC[C@H]1CN(c2ccc(N3CCOCC3)c(F)c2)C(=O)O1 [linezolid]
Settings	AUC25, [1]	Einf, [2]	GRinf, [3]
in vitro model: acidic pH 5.7, time point: constant (~7 days, model-specific)	0.105	0.813	-0.255
in vitro model: acidic pH 5.7, time point: terminal (~4-5 doublings, model-specific)	0.086	0.966	-0.214
in vitro model: intracellular J774, time point: constant = terminal	–	0.947	-0.297

Settings	AUC25, [1]	Einf, [2]	GRinf, [3]
in vitro model: butyrate, time point: constant (~7 days, model-specific)	0.0921	0.894	0.0641
in vitro model: butyrate, time point: terminal (~4-5 doublings, model-specific)	0.0673	0.941	0.0625
in vitro model: cholesterol 0.05 mM, time point: constant (~7 days, model-specific)	0.152	0.692	-0.0397
in vitro model: cholesterol 0.05 mM, time point: terminal (~4-5 doublings, model-specific)	0.152	0.927	-0.195
in vitro model: cholesterol-high 0.2 mM, time point: constant (~7 days, model-specific)	0.119	0.967	-0.633
in vitro model: cholesterol-high 0.2 mM, time point: terminal (~4-5 doublings, model-specific)	0.117	1	-0.803
in vitro model: dormancy (butyrate + nitrate, low O2), time point: constant (~7 days, model-specific)	0.0427	0.907	0.164
in vitro model: dormancy (butyrate + nitrate, low O2), time point: terminal (~4-5 doublings, model-specific)	0.0425	0.989	-0.0469
in vitro model: standard 7H9 glycerol, time point: constant = terminal	0.0679	0.904	0.0704
in vitro model: valerate, time point: constant (~7 days, model-specific)	0.106	0.912	-0.0706
in vitro model: valerate, time point: terminal (~4-5 doublings, model-specific)	0.0701	0.948	-0.0311

COc1c(N2C[C@@H]3CCCN[C@@H]3C2)c(F)cc2c(=O)c(C(=O)O)cn(C3CC3)c12 [moxifloxacin]
Settings	AUC25, [1]	Einf, [2]	GRinf, [3]
in vitro model: acidic pH 5.7, time point: constant (~7 days, model-specific)	0.122	0.749	-0.192
in vitro model: acidic pH 5.7, time point: terminal (~4-5 doublings, model-specific)	0.0782	0.96	-0.226
in vitro model: intracellular J774, time point: constant = terminal	–	0.957	-0.212

Settings	AUC25, [1]	Einf, [2]	GRinf, [3]
in vitro model: butyrate, time point: constant (~7 days, model-specific)	0.0832	0.908	0.0408
in vitro model: butyrate, time point: terminal (~4-5 doublings, model-specific)	0.0522	0.957	0.0197
in vitro model: cholesterol 0.05 mM, time point: constant (~7 days, model-specific)	0.116	0.629	-0.0568
in vitro model: cholesterol 0.05 mM, time point: terminal (~4-5 doublings, model-specific)	0.0909	0.881	-0.0841
in vitro model: cholesterol-high 0.2 mM, time point: constant (~7 days, model-specific)	0.0781	0.824	-0.195
in vitro model: cholesterol-high 0.2 mM, time point: terminal (~4-5 doublings, model-specific)	0.0751	1	-0.609
in vitro model: dormancy (butyrate + nitrate, low O2), time point: constant (~7 days, model-specific)	0.0904	0.927	0.0805
in vitro model: dormancy (butyrate + nitrate, low O2), time point: terminal (~4-5 doublings, model-specific)	0.0579	0.974	-0.132
in vitro model: standard 7H9 glycerol, time point: constant = terminal	0.0856	0.913	0.00369
in vitro model: valerate, time point: constant (~7 days, model-specific)	0.105	0.878	-0.00227
in vitro model: valerate, time point: terminal (~4-5 doublings, model-specific)	0.0529	0.936	0.0339

O=[N+]([O-])c1cn2c(n1)OC[C@@H](OCc1ccc(OC(F)(F)F)cc1)C2 [pretomanid]
Settings	AUC25, [1]	Einf, [2]	GRinf, [3]
in vitro model: acidic pH 5.7, time point: constant (~7 days, model-specific)	0.109	0.891	-0.472
in vitro model: acidic pH 5.7, time point: terminal (~4-5 doublings, model-specific)	0.0605	0.983	-0.294
in vitro model: intracellular J774, time point: constant = terminal	–	1	-0.539

Settings	AUC25, [1]	Einf, [2]	GRinf, [3]
in vitro model: butyrate, time point: constant (~7 days, model-specific)	0.0902	0.949	-0.111
in vitro model: butyrate, time point: terminal (~4-5 doublings, model-specific)	0.0573	0.98	-0.114
in vitro model: cholesterol 0.05 mM, time point: constant (~7 days, model-specific)	0.122	0.741	-0.205
in vitro model: cholesterol 0.05 mM, time point: terminal (~4-5 doublings, model-specific)	0.0841	0.927	-0.0295
in vitro model: cholesterol-high 0.2 mM, time point: constant (~7 days, model-specific)	0.0644	0.888	-0.269
in vitro model: cholesterol-high 0.2 mM, time point: terminal (~4-5 doublings, model-specific)	0.044	0.943	-0.393
in vitro model: dormancy (butyrate + nitrate, low O2), time point: constant (~7 days, model-specific)	0.0707	0.914	0.272
in vitro model: dormancy (butyrate + nitrate, low O2), time point: terminal (~4-5 doublings, model-specific)	0.0458	0.994	-0.0972
in vitro model: standard 7H9 glycerol, time point: constant = terminal	0.0636	0.939	-0.0451
in vitro model: valerate, time point: constant (~7 days, model-specific)	0.136	0.948	-0.0946
in vitro model: valerate, time point: terminal (~4-5 doublings, model-specific)	0.0896	0.96	-0.00421

O=[N+]([O-])c1cn2c(n1)OC[C@@H](OCc1ccc(OC(F)(F)F)cc1)C2 [pretomanid] + CO[C@H]1/C=C/O[C@@]2(C)Oc3c(C)c(O)c4c(O)c(c(/C=N/N5CCN(C)CC5)c(O)c4c3C2=O)NC(=O)/C(C)=C\C=C\[C@H](C)[C@H](O)[C@@H](C)[C@@H](O)[C@@H](C)[C@H](OC(C)=O)[C@@H]1C [rifampicin]
Settings	AUC25, [8]	Einf, [7]	FIC50, [6]	FIC90, [4]	GRinf, [5]
in vitro model: acidic pH 5.7, time point: constant (~7 days, model-specific)	0.106	0.944	0.259	–	-0.224
in vitro model: acidic pH 5.7, time point: terminal (~4-5 doublings, model-specific)	0.0463	0.985	0.545	-0.025	-0.239
in vitro model: intracellular J774, time point: constant = terminal	–	0.966	–	-0.863	-0.281

Settings	AUC25, [8]	Einf, [7]	FIC50, [6]	FIC90, [4]	GRinf, [5]
in vitro model: butyrate, time point: constant (~7 days, model-specific)	0.0943	0.915	0.189	-0.398	0.00239
in vitro model: butyrate, time point: terminal (~4-5 doublings, model-specific)	0.0817	0.966	-0.0797	-0.223	-0.0223
in vitro model: cholesterol 0.05 mM, time point: constant (~7 days, model-specific)	0.108	0.691	0.468	–	-0.0815
in vitro model: cholesterol 0.05 mM, time point: terminal (~4-5 doublings, model-specific)	0.0829	0.905	0.242	-0.715	-0.0976
in vitro model: cholesterol-high 0.2 mM, time point: constant (~7 days, model-specific)	0.0743	0.902	0.509	0.733	-0.211
in vitro model: cholesterol-high 0.2 mM, time point: terminal (~4-5 doublings, model-specific)	0.0653	1	0.521	0.306	-0.595
in vitro model: dormancy (butyrate + nitrate, low O2), time point: constant (~7 days, model-specific)	0.0843	0.942	0.23	-0.00861	0.0579
in vitro model: dormancy (butyrate + nitrate, low O2), time point: terminal (~4-5 doublings, model-specific)	0.0526	0.986	0.0748	0.236	-0.16
in vitro model: standard 7H9 glycerol, time point: constant = terminal	0.0517	0.912	-0.316	-1.42	0.0474
in vitro model: valerate, time point: constant (~7 days, model-specific)	0.104	0.877	0.152	–	0.0588
in vitro model: valerate, time point: terminal (~4-5 doublings, model-specific)	0.0482	0.943	0.504	-0.0514	0.0666
